Experimental data reported in US6015878A, “Antitumor agents isolated from intestinal mucosa, a method for their isolation and their application” (Alexandrov, Christo Alexandrov, priority 1995, dated 2000).
Ends that are not written are not given here.

Tests used:
Type in all cases: in vivo
[1] = tested on: intestines; assay: Incorporation of H^3-thymidine (DNA synthesis) in intestines of treated mice; details: for Incorporation H^3-thymidine: 7 hours after treatment of mice, in comparison with control animals not treated with IEGs
Protocol: (§1) Laboratory experiments were carried out to accomplish the third object concerning the effect of preparations on biosynthetic processes which was assessed by the incorporation of H^3 -thymidine (DNA-synthesis) and C^14 -uridine (RNA synthesis) in various regions of the intestines of the mice tested. The preparation's morphogenic effect was assessed by the enterocytic cellularity and DNA concentration in the same regions.
(§2) Each fraction obtained in purifying IEG (see Object 1) was tested on mice. 3 mg of the peptide content of the fraction was administered intraperitoneally simultaneously with the testing reagent (isotope); the animals were then killed and investigated 7 hours afterwards. […] Both IEGs have a suppressive effect on DNA synthesis especially in the lower regions of intestines: IEG1 by 45%, IEG2 --by 48%. […] In this way it switches on the chain of molecular mechanisms by which it acts on the smooth muscle motility.

[2] = tested on: intestines; assay: Incorporation of C^14-uridine (RNA synthesis) in intestines of treated mice; details: 7 hours after treatment of mice, in comparison with control animals not treated with IEGs
Protocol: as §1, §2

[3] = tested on: intestines; assay: DNA concentration in intestines of treated mice (morphogenic effect); details: 7 hours after treatment of mice, in comparison with control animals not treated with IEGs
Protocol: as §1, §2

[4] = tested on: intestines; assay: Enterocytic cellularity in intestines of treated mice (morphogenic effect); details: for Cellularity: 7 hours after treatment of mice, in comparison with control animals not treated with IEGs
Protocol: as §1, §2

[5] = Middle section of the intestines

Arg-Arg-Asp-Asp-His-Arg-NH2 (RRDDHR-NH2) [IEG2, ID; NO]
Incorporation H^3-thymidine ([1]; Duodenum): 77% | Incorporation H^3-thymidine ([1]; Ileum): 55% | Incorporation H^3-thymidine ([1]; Jejunum): 88% | Incorporation H^3-thymidine [1, 5]: 48% | suppressive effect on DNA synthesis ([1]; lower regions of intestines, mice, 3 mg intraperitoneally, 7 hours): 48% | Incorporation C^14-uridine ([2]; Duodenum): 78% | Incorporation C^14-uridine ([2]; Ileum): 74% | Incorporation C^14-uridine ([2]; Jejunum): 78% | Incorporation C^14-uridine [2, 5]: 74% | DNA concentration ([3]; Duodenum): 68% | DNA concentration ([3]; Ileum): 77% | DNA concentration ([3]; Jejunum): 97% | DNA concentration [3, 5]: 62% | Cellularity ([4]; Duodenum): 88% | Cellularity ([4]; Ileum): 85% | Cellularity ([4]; Jejunum): 75% | Cellularity [4, 5]: 83% | Average reduction in enterocyte number ([4]; mice, 3 mg peptide content intraperitoneally, 7 hours): 20%
